Data set [1] can be described thus: Plasma and urine pharmacokinetics, noncompartmental analysis. Type of data set: in vivo, human. To be noted: for half-life / Tmax: human, plasma; for half-life: po; for Tmax: oral. The protocol:
DLTs included: cycle 1 grade ≥3 hematologic and non-hematologic events or grade 2 non-hematologic events considered by the investigator to be TAK-931-related, grade 2 ejection fraction decrease, >2 weeks delay in initiating cycle 2 (1 week for schedules D and E), and >50% TAK-931 dose reduction in cycle 1 due to treatment-related adverse events (AEs; see Supplementary Materials and Methods for full DLT criteria). Toxicity was evaluated by NCI Common Terminology Criteria for Adverse Events (version 4.03). Tumor response was measured using the RECIST (version 1.1) ([16]). Serial blood samples for pharmacokinetic analysis were collected during cycle 1 on days 1 and 7 (schedule B), 1 and 8 (schedules A and D), or 1 and 9 (schedule E). Pharmacokinetic parameters were estimated from concentration–time profiles using noncompartmental methods with WinNonlin® Phoenix™ version 8.1 (Certara, Princeton, NJ). pMCM2 was detected semiquantitatively by IHC of histologic sections of formalin-fixed, paraffin-embedded skin and tumor biopsies using anti-pMCM2 (3378-1, Epitomics Inc.; ref. [15]). Quantitative image analysis determined pMCM2 levels as “histologic score nuclei (H-score).” Skin punch biopsies (2–4 mm) were obtained during screening or predose on cycle 1, day 1 and for patients in schedules A, B, and D, postdose on any drug dosing day after 3 consecutive dosing days in cycle 1. A postdose skin biopsy was obtained on day 9 in schedule E. Fresh tumor biopsy pairs were collected predose and postdose on any dosing day after the completion of 3 consecutive dosing days in cycle 1 from patients who received doses considered to have biological effect.
The safety population included patients who received ≥1 dose of TAK-931. The pharmacodynamic-evaluable population comprised patients from the safety population with a baseline and ≥1 additional postbaseline biopsy sample that was suitable for pMCM2 analysis. The pharmacokinetic-evaluable population included patients with sufficient dosing and TAK-931 concentration–time data to estimate pharmacokinetic parameters. The response-evaluable population included patients in the safety population with measurable disease at baseline and ≥1 postbaseline response assessment.

For data set [2] the following is noted: animal toxicology studies; used as escalation limit; cited from earlier work.

Like-named read-outs stand apart in the source and are kept apart here.

Consider `Cc1[nH]ncc1-c1cc2nc([C@@H]3CC4CCN3CC4)[nH]c(=O)c2s1` [TAK-931, simurosertib], for which, in data set [1] (120 and 150 mg), the “Accumulation following higher doses” value is given as “minor accumulation”. Further, in data set [1] (estimated amount excreted in urine, n = 79), the “Renal clearance (CLr) as share of total apparent clearance” value is listed as “approximately 8%”. For the same molecule, the half-life in data set [1] (50 mg, oral administration of 50 mg, read-out: Terminal half-life (converted)) was approximately 5 h; in data set [1] (oral administration, read-out: Estimated T1/2), 5 to 6 h; in data set [1] (oral administration, read-out: Mean half-life (T1/2)), 4.58 to 6.53 h. The Tmax in data set [1] (50 mg dose, read-out: Tmax) is approximately 2 h; in data set [1] (postdose, over the dose range of 20–50 mg, read-out: Median time to maximum plasma concentration (Tmax)), 1 to 4 h. Further, the “Systemic exposures between day 1 and days 7, 8, or 9” value in data set [1] (multiple dosing) is recorded as “mostly unchanged”. Besides, the “Plasma exposure vs dose” value in data set [1] (single- and multiple-dose administration over 20–50 mg) is given as “approximately dose proportional”. Further, the “Systemic exposure vs dose (dose-normalized AUC24)” value in data set [1] (single- and multiple-dose administration over the range 20–150 mg) was “approximately dose proportional”. In addition, the “Cmax threshold for off-target adverse effects (hypotension)” value in data set [2] is on record as 800 ng/mL.

These data come from paper PMC10035389, “Safety, Tolerability, and Pharmacokinetics of TAK-931, a Cell Division Cycle 7 Inhibitor, in Patients with Advanced Solid Tumors: A Phase I First-in-Human Study” (Cancer Research Communications, 2022).
